Measurements published in US20170152258A9, “Substituted Pyridopyrazines as Syk Inhibitors” (HUTCHISON MEDIPHARMA LIMITED, priority 2012, published 2017).
Values joined by “and” are separate entries in the source; they are usually repeats but may differ in a detail not shown here. Equal entries are not always repeated.

What was measured:
Flt-3 = target: T1, Flt-3 (Homo sapiens, UniProt P36888); assay: Z-Lyte Kinase Assay of Flt-3; format: biochemical; details: Flt3 kinase
T1 sequence (P36888 27-993): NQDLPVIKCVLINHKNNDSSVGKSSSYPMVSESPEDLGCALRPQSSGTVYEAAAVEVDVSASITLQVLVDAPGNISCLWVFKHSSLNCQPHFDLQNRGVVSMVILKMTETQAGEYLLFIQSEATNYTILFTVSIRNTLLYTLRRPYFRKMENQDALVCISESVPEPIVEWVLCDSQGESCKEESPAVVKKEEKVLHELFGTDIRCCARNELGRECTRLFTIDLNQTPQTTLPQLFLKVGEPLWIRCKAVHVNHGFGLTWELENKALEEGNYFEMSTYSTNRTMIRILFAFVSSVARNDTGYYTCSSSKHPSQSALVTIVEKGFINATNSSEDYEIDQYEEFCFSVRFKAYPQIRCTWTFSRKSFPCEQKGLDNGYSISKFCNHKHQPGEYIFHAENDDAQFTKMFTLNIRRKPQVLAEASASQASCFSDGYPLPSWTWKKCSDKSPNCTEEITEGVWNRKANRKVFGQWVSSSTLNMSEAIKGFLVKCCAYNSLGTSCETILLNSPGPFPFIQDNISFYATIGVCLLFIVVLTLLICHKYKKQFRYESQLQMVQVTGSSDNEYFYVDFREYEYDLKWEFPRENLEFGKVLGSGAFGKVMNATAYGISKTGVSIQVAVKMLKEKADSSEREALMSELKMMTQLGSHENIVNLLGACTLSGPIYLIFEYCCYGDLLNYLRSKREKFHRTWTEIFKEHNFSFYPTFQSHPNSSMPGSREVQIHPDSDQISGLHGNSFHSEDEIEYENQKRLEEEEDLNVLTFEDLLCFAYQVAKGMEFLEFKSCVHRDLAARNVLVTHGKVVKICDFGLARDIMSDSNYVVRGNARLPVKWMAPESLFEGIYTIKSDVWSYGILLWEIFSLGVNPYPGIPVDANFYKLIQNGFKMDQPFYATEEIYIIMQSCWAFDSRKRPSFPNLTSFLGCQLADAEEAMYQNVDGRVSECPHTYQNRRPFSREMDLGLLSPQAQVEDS
Procedure: Z-Lyte Kinase Assay of Flt-3:
Serially dilute the test compounds to 4 folds of the concentrations desired, keeping the DMSO concentration at 8%. The final concentrations were 3, 1, 0.33, 0.11, 0.037, 0.012, 0.004, 0.0014 μM, and the final concentration of DMSO was 2%.
Prepare Kinase/Peptide Mixture by diluting the kinase to 0.12 μg/mL and the Z-LYTE™ Tyr 2 peptide to 4 μM in 1.33× Kinase Buffer. Mix gently by pipetting.
Prepare ATP Solution by diluting the 10 mM of ATP in 1.33× Kinase Buffer to 1.88 mM.
• a. Add 2.5 μL of 4× test Cpds to each well except C1, C2, C3 wells • Add 2.5 μL of 8% DMSO to C1, C2, C3 wells • b. Put the 384-plate on ice • c. Add 5 μL of P/K mixture to each test Cpd wells and C1, C2 wells • d. Add 5 μL of PP Solution to C3 well • e. Add 2.5 μL of 1.33× kinase buffer to C1 and C3 wells • f. Add 2.5 μL of 4×ATP Solution to each test Cpd wells and C2 well, respectively. • Shake the plate for 30 Sec and centrifuge (1500 rpm, 1 min) • g. Seal the plate to protect from the light and incubate the plate for 1 hour at RT (25-30° C.).
• a. Add 5 μL of the Development solution to all wells • b. Shake the plate for 30 Sec and centrifuge (1500 rpm, 1 min) • c. Seal the plate to protect from the light and incubate the plate for 1 hour at RT (25-30° C.).
• a. […]
IC50 Value: determined with add-in software for Microsoft Excel, XLfit™ (version 2.0) from ID Business Solutions (Guildford, UK)

Syk kinase = Syk kinase (Homo sapiens, UniProt P43405); assay: SYK Enzymatic Assay (Z-LYTE Tyr 2 peptide); format: biochemical; details: 8 concentrations 1 μM down to 0.0003 μM
Summary of the method: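 Z-LYTE format using Tyr 2 peptide. After the 1 h room-temperature kinase reaction, development reagent was added for 1 h, then stop reagent. Fluorescence was read at 445 and 520 nm. Compounds were tested at 8 concentrations, 1 μM down to 0.0003 μM (1:3 dilutions).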

RBL-2H3 cells = assay: IgE-induced Beta-hexosaminidase secretion in RBL-2H3 cells; format: cell-based; details: Rattus norvegicus, RBL-2H3, IgE-induced Beta-hexosaminidase secretion, DNP-BSA stimulation
Summary of the method: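 RBL-2H3 cells sensitized overnight with 0.5 ug/ml SPE-7 IgE, washed, preincubated with compound 20 min at 37° C, then stimulated with DNP-BSA (150 ng/mL stock) for 45 min. Released β-hexosaminidase measured on supernatant with 1 mM 4-nitrophenyl N-acetyl-β-D-glucosaminide, pH 4.5, 1.5 hr at 37° C; absorbance 405 nm after carbonate quench.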

| IC50 (Flt-3) | IC50 (Syk kinase) | IC50 (RBL-2H3 cells) | SMILES |
| --- | --- | --- | --- |
| 885 nM | 30 nM | 52 nM | CC(=O)N1CCO[C@H](COc2nc(-c3ccc4c(c3)CCOC4(C)C)cc3nccnc23)C1 [Compound 300] |
| 880 nM | 32 nM and 28 nM | 37 nM | CC(C)(O)c1ccc(-c2cc3nccnc3c(OC[C@@H]3CN(S(C)(=O)=O)CCO3)n2)cc1 [Compound 219] |
